Measured values from patent publication US20240228488A1 (TAKEDA PHARMACEUTICAL COMPANY LIMITED, priority 2021, published 2024).

Target: human activated kallikrein enzyme (Homo sapiens, UniProt P03952)
Experiment: Plasma kallikrein inhibition, fluorogenic PFR-AMC substrate, 500 pM activated kallikrein format
Assay type: biochemical
Conditions: 500 pM activated kallikrein, 300 uM PFR-AMC, 30 min preincubation, 10 min reaction; read-out: Primary Dose Response Assay: Average EC50
In short: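 Enzyme at 500 pM preincubated 30 min RT with inhibitors in 20 mM Tris pH 7.5, 1 mM EDTA, 150 mM NaCl, 0.1% PEG-400, 0.1% Triton X-100. Reaction started with 300 uM PFR-AMC, run 10 min RT; fluorescence read at 460 nm emission, 380 nm excitation. EC50 reported in ranges.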

human activated kallikrein enzyme, sequence (P03952 391-638 limits assumed): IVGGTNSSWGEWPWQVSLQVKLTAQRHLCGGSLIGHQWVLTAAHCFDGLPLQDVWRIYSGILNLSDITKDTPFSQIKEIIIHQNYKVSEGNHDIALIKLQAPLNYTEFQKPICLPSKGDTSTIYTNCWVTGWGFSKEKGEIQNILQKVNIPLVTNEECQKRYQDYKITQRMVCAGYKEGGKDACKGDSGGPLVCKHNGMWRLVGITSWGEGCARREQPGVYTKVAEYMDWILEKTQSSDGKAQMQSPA
human activated kallikrein enzyme, sequence (P03952 20-390 partner limits assumed): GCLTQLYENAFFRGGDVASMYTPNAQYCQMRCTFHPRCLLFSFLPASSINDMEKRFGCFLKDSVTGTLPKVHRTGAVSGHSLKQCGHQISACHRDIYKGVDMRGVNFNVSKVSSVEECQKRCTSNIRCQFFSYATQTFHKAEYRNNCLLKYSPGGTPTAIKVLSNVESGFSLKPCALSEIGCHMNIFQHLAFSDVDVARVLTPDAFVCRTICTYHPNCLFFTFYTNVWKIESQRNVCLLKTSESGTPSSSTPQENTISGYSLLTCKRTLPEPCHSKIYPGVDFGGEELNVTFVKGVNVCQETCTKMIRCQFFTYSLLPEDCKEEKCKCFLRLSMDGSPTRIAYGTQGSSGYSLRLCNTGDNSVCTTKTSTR

| EC50 [nM] | Structure (SMILES) |
| --- | --- |
| 10 to 100 | COc1nc(NCc2cn3cc(C4CC4)ccc3n2)cc(NC(=O)[C@@H]2C[C@H]2c2cccc(Cl)c2)n1 (racemic) [Example 107, rac-(1S*,2S*)-2-(3-chlorophenyl)-N-(6-(((6-cyclopropylimidazo[1,2-a]pyridin-2-yl)methyl)amino)-2-methoxypyrimidin-4-yl)cyclopropane-1-carboxamide] |
| < 1 | Cc1ccnc([C@H]2C[C@@H]2C(=O)Nc2cc(N[C@H](C)c3cn4cc(C5(F)CC5)cc(N5CC(=O)N(C)C5=O)c4n3)nc(C)n2)n1 [Example 436, (1S,2S)-N-(6-(((R)-1-(6-(1-fluorocyclopropyl)-8-(3-methyl-2,4-dioxoimidazolidin-1-yl)imidazo[1,2-a]pyridin-2-yl)ethyl)amino)-2-methylpyrimidin-4-yl)-2-(4-methylpyrimidin-2-yl)cyclopropane-1-carboxamide] |
| 1 to 10 | O=C(Nc1cc(NCc2cn3cc(C4CC4)cc(N4CCCC4=O)c3n2)ncn1)[C@H]1C[C@@H]1c1cccc(Cl)c1 (racemic) [Example 58, rac-(1S*,2S*)-2-(3-chlorophenyl)-N-(6-(((6-cyclopropyl-8-(2-oxopyrrolidin-1-yl)imidazo[1,2-α]pyridin-2-yl)methyl)amino)pyrimidin-4-yl)cyclopropane-1-carboxamide] |
| < 1 | Cc1ccnc([C@H]2C[C@@H]2C(=O)Nc2cc(N[C@H](C)c3cn4cc(C5CC5)cc(N5C(=O)N(C)C(=O)C56COC6)c4n3)ncn2)n1 [Example 420, (1S,2S)-N-(6-(((R)-1-(6-cyclopropyl-8-(7-methyl-6,8-dioxo-2-oxa-5,7-diazaspiro[3.4]octan-5-yl)imidazo[1,2-a]pyridin-2-yl)ethyl)amino)pyrimidin-4-yl)-2-(4-methylpyrimidin-2-yl)cyclopropane-1-carboxamide] |
| 100 to 1000 | O=C(Nc1cc(NCc2cn3cc(C4CC4)ccc3n2)ccn1)[C@@H]1C[C@H]1c1cccc(Cl)c1 (single isomer, unassigned) [Example 116] |
| 100 to 1000 | O=C(Nc1cc(N2C[C@@H](O)[C@@H](O)[C@@H]2c2cn3cc(C4CC4)ccc3n2)ncn1)[C@H]1C[C@@H]1c1cccc(Cl)c1 [Example 483, (1S,2S)-2-(3-chlorophenyl)-N-(6-((2S,3S,4R)-2-(6-cyclopropylimidazo[1,2-a]pyridin-2-yl)-3,4-dihydroxypyrrolidin-1-yl)pyrimidin-4-yl)cyclopropane-1-carboxamide] |
| > 6000 | CO[C@H]1C[C@H](c2cn3cc(C4CC4)ccc3n2)N(c2cc(NC(=O)[C@H]3C[C@@H]3c3cccc(Cl)c3)ncn2)C1 [Example 616, (1S,2S)-2-(3-chlorophenyl)-N-(6-((2R,4S)-2-(6-cyclopropylimidazo[1,2-a]pyridin-2-yl)-4-methoxypyrrolidin-1-yl)pyrimidin-4-yl)cyclopropane-1-carboxamide] |
| 100 to 1000 | N#Cc1ccc(Cl)cc1C1CC1C(=O)Nc1cc(NCc2cn3cc(C4CC4)cc(N4CCCC4=O)c3n2)ncn1 (stereo not shown) [Example 335] |
| > 6000 | O=C(Nc1cc(NCc2cn3cc(C4CC4)ccc3n2)ccn1)[C@H]1C[C@@H]1c1n[nH]c2ccc(Cl)cc12 (racemic) [Example I-225, rac-(1S*,2S*)-2-(5-chloro-1H-indazol-3-yl)-N-(4-(((6-cyclopropylimidazo[1,2-a]pyridin-2-yl)methyl)amino)pyridin-2-yl)cyclopropane-1-carboxamide] |
| 10 to 100 | O=C(Nc1cc(N(CCO)Cc2cn3cc(C4CC4)ccc3n2)ncn1)[C@H]1C[C@@H]1c1cc(Cl)ccn1 [Example 328, (1S,2S)-2-(4-chloropyridin-2-yl)-N-(6-(((6-cyclopropylimidazo[1,2-a]pyridin-2-yl)methyl)(2-hydroxyethyl)amino)pyrimidin-4-yl)cyclopropane-1-carboxamide] |
| 1000 to 6000 | O=C(Nc1nccc2c1cnn2Cc1cn2cc(C3CC3)ccc2n1)[C@H]1C[C@@H]1c1cccc(Cl)c1 [Example 584, (1S,2S)-2-(3-chlorophenyl)-N-(1-((6-cyclopropylimidazo[1,2-a]pyridin-2-yl)methyl)-1H-pyrazolo[4,3-c]pyridin-4-yl)cyclopropane-1-carboxamide] |
| > 6000 | C[C@H]1[C@H](C(=O)Nc2cc(NCc3cn4cc(C5CC5)ccc4n3)ncn2)[C@H]1c1cccc(Cl)c1 (single isomer, unassigned) [Example 506, (1R*,2R*,3S*)-2-(3-chlorophenyl)-N-(6-(((6-cyclopropylimidazo[1,2-a]pyridin-2-yl)methyl)amino)pyrimidin-4-yl)-3-methylcyclopropane-1-carboxamide] |
| < 1 | O=C(Nc1nccc2nn(Cc3cn4cc(C5CC5)ccc4n3)cc12)[C@H]1C[C@@H]1c1cc(Cl)ccc1-n1cnnn1 (racemic) [Example 586, rac-(1S*,2S*)-2-(5-chloro-2-(1H-tetrazol-1-yl)phenyl)-N-(2-((6-cyclopropylimidazo[1,2-a]pyridin-2-yl)methyl)-2H-pyrazolo[4,3-c]pyridin-4-yl)cyclopropane-1-carboxamide] |
| 100 to 1000 | O=C(O)COc1ccc(Cl)cc1[C@H]1C[C@@H]1C(=O)Nc1cc(NCc2cn3cc(C4CC4)ccc3n2)ncn1 (racemic) [Example 315, rac-3-(4-chloro-2-((1S*,2S*)-2-((6-(((6-cyclopropylimidazo[1,2-a]pyridin-2-yl)methyl)amino)pyrimidin-4-yl)carbamoyl)cyclopropyl)phenoxy)acetic acid] |
| 1 to 10 | N#Cc1ccc(Cl)cc1[C@H]1C[C@@H]1C(=O)Nc1cc(NCc2cn3cc(C4CC4)ccc3n2)ncn1 (racemic) [Example 48, rac-(1S*,2S*)-2-(5-chloro-2-cyanophenyl)-N-(6-(((6-cyclopropylimidazo[1,2-a]pyridin-2-yl)methyl)amino)pyrimidin-4-yl)cyclopropane-1-carboxamide] |
| < 1 | Cc1ccnc([C@H]2C[C@@H]2C(=O)Nc2cc(N[C@H](C)c3cn4cc(C5CC5)cc(N5CC(=O)N(C)C5=O)c4n3)nc(CO)n2)n1 [Example 469, (1S,2S)-N-(6-(((R)-1-(6-cyclopropyl-8-(3-methyl-2,4-dioxoimidazolidin-1-yl)imidazo[1,2-a]pyridin-2-yl)ethyl)amino)-2-(hydroxymethyl)pyrimidin-4-yl)-2-(4-methylpyrimidin-2-yl)cyclopropane-1-carboxamide] |
| 1 to 10 | O=C(Nc1cc(NCc2cn3cc(C4CC4)cc(Cl)c3n2)ncn1)[C@H]1C[C@@H]1c1cccc(Cl)c1 (racemic) [Example 59, rac-(1S*,2S*)-N-(6-(((8-chloro-6-cyclopropylimidazo[1,2-α]pyridin-2-yl)methyl)amino)pyrimidin-4-yl)-2-(3-chlorophenyl)cyclopropane-1-carboxamide] |
| 1 to 10 | O=C(Nc1cc(NCc2cn3cc(C4CC4)ccc3n2)ncn1)[C@H]1C[C@@H]1c1cc(Cl)ccc1O (racemic) [Example 313, rac-(1S*,2S*)-2-(5-chloro-2-hydroxyphenyl)-N-(6-(((6-cyclopropylimidazo[1,2-a]pyridin-2-yl)methyl)amino)pyrimidin-4-yl)cyclopropane-1-carboxamide] |
| 1 to 10 | Cc1cc2nn(Cc3cn4cc(C5CC5)ccc4n3)cc2c(NC(=O)[C@H]2C[C@@H]2c2cccc(Cl)c2)n1 [Example 581, (1S,2S)-2-(3-chlorophenyl)-N-(2-((6-cyclopropylimidazo[1,2-a]pyridin-2-yl)methyl)-6-methyl-2H-pyrazolo[4,3-c]pyridin-4-yl)cyclopropane-1-carboxamide] |
